In patent US10154990B2, “Medicaments for the treatment or prevention of fibrotic diseases” (Boehringer Ingelheim International GmbH, priority 2004, dated 2018):

Assays:
[1] = test system: Bleomycin-induced Pulmonary Fibrosis; assay: Lung morphology following bleomycin-induced pulmonary fibrosis (histology, Masson's Trichrome); format: in vivo, Male Wistar rats; conditions: bleomycin-treated rats (10 U/kg intratracheal), daily oral treatment with 50 mg/kg, days 1-21, lungs removed 21 days after instillation
Protocol: (A) Effect of a Representative Compound on Lung Morphology Following Bleomycin-induced Pulmonary Fibrosis. Bleomycin sulfate (Bleomycin […]) was purchased from a local pharmacy. All experiments were performed in accordance with German guidelines for animal welfare, performed by persons certified to work with animals and approved by the responsible authorities. Male Wistar rats were intratracheally injected with Bleomycin sulfate (10U/kg body weight in 300 μl saline) or saline alone (saline control) using a catheter (0.5 mm internal diameter, 1.0 mm external diameter) through the nasal passage, following exposure to the anaesthetic Isofluorane for 5 minutes. The following day, the rats were orally treated with Example A (compound (m)) or saline suspended in 1 ml 0.1% Natrosol. Control rats were administered 1 ml 0.1% Natrosol (vehicle control). [table] 21 days following bleomycin instillation, the rats were killed with a lethal intraperitoneal injection of NarcorenTM (Pentobarbital Sodium, Rhone Merieux). The lungs were then removed, blotted dry and half was snap frozen in liquid nitrogen and stored at -80° C. The other half was fixed in 4% formalin for subsequent paraffin embedding and histology. […] Collagen deposition was assessed using Masson's Trichrome staining. […]

fibrotic marker genes = assay: Expression of fibrotic marker genes in lung following bleomycin-induced pulmonary fibrosis (real time PCR); format: in vivo, Male Wistar rats; conditions: bleomycin-treated rats, daily 50 mg/kg, days 1-21, real time PCR normalized to 18S
Protocol: (B) Effect of a Representative Compound on Expression of Fibrotic Marker Genes Following Bleomycin-induced Pulmonary Fibrosis.
One part of the frozen lung tissue dedicated to investigation of gene expression was cut into small pieces using a sterile scalpel blade. Approximately 100 mg of tissue was then placed into a 2 ml Eppendorf tube and 1.5 ml of Trizol (Invitrogen) was added. A sterile tungsten carbide bead (Qiagen) was then added to the tube and the tube was placed in a Retsch MM300 Tissue disruptor (Qiagen) at a frequency of 30.0 Hz for 8 minutes. After this time, the bead was removed and the sample centrifuged at 12000 rpm for 10 minutes to remove tissue debris. The RNA was extracted using a modified version of the manufacturer's protocol supplied with Trizol. […] The concentration of each sample was then measured using a spectrophotometer. […]
Real Time PCR was carried out in 25 μl reactions, using 25 ng (5 μl) of cDNA per reaction. A quantitative PCR core kit was purchased (Eurogentec) and a master-mix was made up as follows for 100 reactions: 500 μl 10× reaction buffer, 500 μl MgCl2 (50 mM), 200 μl dNTP mix solution (5 mM), 25 μl Hot Goldstar enzyme, 75 μl 18S PDAR, 22.5 μl forward primer, 22.5 μl reverse primer, 15 μl probe and […] DEPC treated water. […]
In order to quantify the gene expression, a standard curve was constructed for each primer set and was included on each plate. […]

Compound | lung fibrosis (lung morphology, collagen deposition by Masson's Trichrome staining) [1] | expression of fibrotic marker genes (procollagen I, fibronectin) in the lung (fibrotic marker genes; FIGS. 2 and 3, vs bleomycin + vehicle) | expression of fibrotic marker genes (procollagen I, TGFb) in the lung (fibrotic marker genes; FIGS. 5 and 6, vs bleomycin + vehicle)
COC(=O)c1ccc2c(c1)NC(=O)/C2=C(\Nc1ccc(N(C)C(=O)CN(C)C)cc1)c1ccccc1 [Compound (m), 3-Z-[1-(4-(N-dimethylaminomethylcarbonyl-N-methyl-amino)-anilino)-1-phenyl-methylene]-6-methoxycarbonyl-indolinone] | consistent, nearly complete reversal of lung fibrosis | significant (p≤0.0001) inhibition | 
COC(=O)c1ccc2c(c1)NC(=O)/C2=C(\Nc1ccc(N(C)C(=O)CN2CCN(C)CC2)cc1)c1ccccc1 [Compound (u), 3-Z-[1-(4-(N-((4-methyl-piperazin-1-yl)-methylcarbonyl)-N-methyl-amino)-anilino)-1-phenyl-methylene]-6-methoxycarbonyl-2-indolinone] | consistent, nearly complete reversal of lung fibrosis |  | significant (p≤0.0001) inhibition
